Measurements taken from patent publication US6531435B1 (priority 2000, dated 2003).
Like-named read-outs stand apart in the source and are kept apart here.

Key:
S. aureus MN8 = type: cell-based, Staphylococcus aureus; settings: 24 hours at 35° C.
TSST-1 = type: cell-based, Staphylococcus aureus

Row | Substance | Final [S. aureus] (×10^9 CFU/ml) (S. aureus MN8) | TSST-1 (TSST-1; 24 hours at 35° C.) | TSST-1 (TSST-1)
1 | Laureth-4 | 4.57 ×10^9 CFU/ml | 531.8 ng/mL | –
2 | PPG-5 Laureth-5 | 3.82 ×10^9 CFU/ml | – | 609.2 ng/mL
3 | Steareth-2 | 5.76 ×10^9 CFU/ml | 680.7 ng/mL | –
